The numbers were not newly measured in the CATMoS acute toxicity set (Mansouri et al. 2021), which cites them from elsewhere.

Several values for one entry are separate records, joined by “and”; a condition that tells them apart may be missing. Identical values can stand only once.

The data set is described as follows: rat acute oral toxicity. Conditions: in vivo. The source says: […]The data set underlying the modeling effort for this project was initially compiled by NICEATM and U.S. EPA’s CCTE. Briefly, LD50 data were collected from rat acute oral systemic toxicity tests, including limit tests, ranges/confidence intervals, and discrete LD50 values. The full data set included 21,200 LD50 entries for 15,688 substances. […] Data were reviewed to ensure that LD50 values with obvious errors in the extracted data such as unit conversion errors (e.g., comma and decimal separator misplacements) were either fixed or removed. After this review, 16,209 LD50 values remained. Many of the chemicals represented had multiple LD50 entries, requiring that a single representative value per Chemical Abstracts Service Registry Number (CASRN) identifier be defined to facilitate modeling efforts. Based on ATWG feedback and to define the representative LD50 as a protective value while accounting for the distribution across multiple LD50s, the median of the lowest quartile was computed using only discrete LD50 values (omitting limit test data and range and confidence interval data). A detailed summary of the data compilation is available online on the NICEATM webpage dedicated to the collaborative modeling project (NTP 2020).
[…][…] For categorical designations, limit test and range/confidence interval LD50 data were integrated wherever possible. As such, the number of chemicals with end point values/calls varies across the modeling end points (Table 3) based on whether chemicals had representative LD50 values and/or other data. If a chemical had both, the representative value was used to determine categorical calls rather than limit test data. Some data were useable only for certain end points and categories depending on the thresholds. For example, ranges that spanned multiple hazard categories were considered only for the binary (very toxic/nontoxic) end points and omitted from rendering a determination for hazard category assignment.
[…]The final data set comprising 11,992 chemicals was split into training and evaluation sets […], respectively. This process was performed semirandomly by ordering chemicals based on the five end points (categorical and continuous LD50 values) and partitioning every fourth record into the evaluation set accordingly. This approach was taken to ensure an equivalent distribution of the LD50 values and the different hazard categories between the training and the evaluation sets without supervised sampling of the chemicals based on structures (Figure 1A). The sources of the chemical structures were also kept equivalent between the two sets, with chemical structures obtained from DSSTox, being the highest quality, representing over 75% of each set (Figure 1B).
`c1ccc(P(c2ccccc2)c2ccccc2)cc1`: the LD50 is 700 mg/kg.
On to `CCC(=O)OC1(c2ccccc2)CCN(C)C1C` (stereo not drawn), for which the LD50 is 253 mg/kg.
Turning to `CNCCCC12CCC(c3ccccc31)c1ccccc12`, the LD50 is 760 mg/kg.
As for `CCCCCCCCOC(C[n+]1ccccc1)c1ccc(C(C)(C)C)cc1` (stereo not drawn), the LD50 was 250 mg/kg.
Consider `CC(C)(C)c1ccc(C(=O)O)cc1`, for which the LD50 was 473 mg/kg.
Regarding `COCc1ccc(-c2ccc(COC)cc2)cc1`, the LD50 is 1370 mg/kg.
`COc1ccc(OC)c(CC(C)N)c1` (racemic): the LD50 was 171 mg/kg.
In the case of `CCCCCOC(=S)S`, the LD50 is 1000 mg/kg.
In the case of `NC(N)=NC(N)=NCc1ccccc1`, the LD50 was 481 mg/kg.
On to `O=C1CC2(CCCC2)CC(=O)N1CCCCN1CCN(c2ncccn2)CC1`, for which the LD50 was 196 mg/kg.
`CCCc1c(OCc2cccn3c(=O)c(CC(=O)O)cnc23)ccc(C(C)=O)c1O`: the LD50 was 4000 mg/kg.
Turning to `CC1CN(CCO)CC1C` (stereo not drawn), the LD50 is 1230 mg/kg.
`COP1(=S)OCc2ccccc2O1` (stereo not drawn): the LD50 is 102 mg/kg.
In the case of `O=[N+]([O-])O[C@@H]1CO[C@H]2[C@@H]1OC[C@@H]2O`, the LD50 was 2010 mg/kg.
Take `CC(C)=CC1C(C(=O)OC(C#N)c2cccc(Oc3ccccc3)c2)C1(C)C` (stereo not drawn): the median lethal dose (LD50) was 318 mg/kg.
On to `Cc1ccc(S(=O)(=O)NN)cc1`, for which the LD50 was 283 mg/kg.
Regarding `CC(Cl)(Cl)C(=O)OCCOc1cc(Cl)c(Cl)cc1Cl`, the LD50 is 1000 mg/kg.
On to `Cc1ccc2c(Cl)cc(Cl)c(O)c2n1`, for which the 50% lethal dose (LD50) was 660 mg/kg.
`COC(=O)c1c(Cl)c(Cl)c(C(=O)N(C)OC)c(Cl)c1Cl`: the LD50 was 1170 mg/kg.
With `Cc1cc(OC(=O)N(C)C)n(-c2ccccc2)n1`, the LD50 is 62 mg/kg.
As for `Brc1cnc[nH]1`, the LD50 was 250 mg/kg.
`CC(C)(C)c1cc(CCC(=O)NCCN)cc(C(C)(C)C)c1O`: the LD50 is 1560 mg/kg.
In the case of `NC(=O)C(O)(c1ccccc1)c1ccccc1`, the LD50 is 1550 mg/kg.
Regarding `COc1ccc(N=NN(C)C)cc1`, the LD50 was 347 mg/kg.
For the molecule `FC(F)(F)c1nc2c(Cl)c(Br)c(Br)c(Br)c2[nH]1`, the LD50 is 5.25 mg/kg.
`O=C(Nc1ccccc1)Nc1cnns1`: the LD50 is 5350 mg/kg.
For the molecule `CCCOC/C(=N\c1ccc(Cl)cc1C(F)(F)F)n1ccnc1`, the median lethal dose (LD50) is 715 mg/kg.
As for `Nc1ccc(Cl)c([N+](=O)[O-])c1`, the LD50 was 400 mg/kg.
Consider `O=C1C(=O)c2ncccc2-c2cccnc21`, for which the LD50 is 5 mg/kg.
In the case of `Nc1cc(Cl)c(N)cc1Cl`, the LD50 was 1750 mg/kg.
On to `C=CCn1c(=O)c2[nH]c(C)nc2n(CC(C)C)c1=O`, for which the LD50 is 17 mg/kg.
Consider `CC(=O)c1ccc(C(O)C(CO)NC(=O)C(Cl)Cl)cc1` (stereo not drawn), for which the LD50 was 1100 mg/kg.
As to `NCCOCNc1ccccc1`, the LD50 is 0.625 mg/kg.
Take `CCOC(C1=NCC(C)(C)CN1)c1ccc(C(C)C)cc1` (stereo not drawn): the LD50 is 220 mg/kg.
As for `CCCCOC(=S)S`, the LD50 is 456 mg/kg.
On to `CC[C@H]1C2C[C@H]3[C@@H]4N(C)c5ccccc5C45C[C@@H](C2[C@H]5O)N3[C@@H]1O` (stereo partly drawn), for which the LD50 was 290 mg/kg.
For `NCC(O)c1ccc(O)c(O)c1` (stereo not drawn), the LD50 was 132 mg/kg.
Consider `COc1ccc(CCNC[C@H](O)c2ccc(O)cc2)cc1OC`, for which the median lethal dose (LD50) is 9370 mg/kg.
On to `CCN(CC)CCC(CC=C(C)C)(C(N)=O)c1cccc2ccccc12` (stereo not drawn), for which the LD50 was 71 mg/kg.
Consider `CC(C)COC(=S)S`, for which the LD50 is 1290 mg/kg.
With `CN(CCc1ccccc1)N=O`, the LD50 was 48 mg/kg.
With `CCOC(=O)CC(=O)OC(Br)C(Cl)(Cl)Cl` (stereo not drawn), the LD50 is 2600 mg/kg.
Consider `CCOP(=S)(OCC)OC(C)=CC(=O)OC`, for which the LD50 was 0.14 mg/kg.
Consider `CC(C)Nc1nc(NC(C)C)nc(N(C)C#N)n1`, for which the LD50 was 1700 mg/kg.
Consider `COC(=O)/C(C)=C/OP(=S)(OC)OC`, for which the LD50 is 678 mg/kg.
On to `CN(C)C(=O)c1sc(-c2cccnc2)nc1-c1ccccc1`, for which the LD50 is 1040 mg/kg.
In the case of `OCCN(CCO)c1ccccc1`, the median lethal dose (LD50) was 980 mg/kg.
With `C=CCOC1=NS(=O)(=O)c2ccccc21`, the LD50 was 2030 mg/kg.
On to `COC1=C2C[C@@H](C)C[C@H](OC)[C@H](O)[C@@H](C)C=C(C)[C@H](OC(N)=O)[C@@H](OC)C=CC=C(C)C(=O)NC(=CC1=O)C2=O`, for which the LD50 is 2500 mg/kg.
Take `Cc1cc(Cl)ccc1OCC(=O)OCCCCCC(C)C`: the 50% lethal dose (LD50) is 700 mg/kg.
For `CC(C)NC1Cc2ccccc2Cc2ccccc21` (stereo not drawn), the LD50 was 500 mg/kg.
Regarding `CCCN(CCC)S(=O)(=O)CCNC(=O)N(CCCl)N=O`, the LD50 is 250 mg/kg.
With `CC(C)(C)c1ccccc1`, the 50% lethal dose (LD50) was 3040 mg/kg.
Take `CC1=CC[C@@H]2C[C@@H](C[C@]3(CC[C@H](C)[C@@H](C)O3)O2)OC(=O)[C@@H]2C=C(C)[C@@H](O)[C@H]3OCC(=CC=C[C@H](C)C1)[C@]32O`: the LD50 was 456 mg/kg.
As for `FC(F)(F)C(F)(F)C(F)(F)C(F)(F)C(F)(F)C(F)(F)CCI`, the LD50 is 3870 mg/kg.
With `Cn1cc(C(=O)[C@@H]2CCc3[nH]cnc3C2)c2ccccc21`, the LD50 is 1260 mg/kg.
As to `O=C(O)c1cc(O)c(O)c(OC(=O)c2cc(O)c(O)c(O)c2)c1`, the median lethal dose (LD50) is 2260 mg/kg.
Regarding `COc1ccc(Nc2ccc(OC)cc2)cc1`, the median lethal dose (LD50) was 2470 mg/kg.
`O=C(CF)OCCOC(=O)CF`: the median lethal dose (LD50) is 2.2 mg/kg.
On to `CC1CCC(=O)CC1`, for which the LD50 is 800 mg/kg.
`Cc1oc(C)c(C(=O)Nc2ccccc2)c1C`: the LD50 was 1470 mg/kg.
In the case of `CCCCCCC=NO`, the LD50 is 1040 mg/kg.
As to `C=CCSP(=O)(NC(=O)CC)OC` (stereo not drawn), the LD50 was 125 mg/kg.
For the molecule `Clc1ccc(S/N=N/c2cc(Cl)c(Cl)cc2Cl)cc1`, the LD50 was 4000 mg/kg.
Turning to `CC=CCO`, the LD50 was 793 mg/kg.
As to `O=C(O)COc1nn(Cc2ccccc2)c2ccccc12`, the LD50 was 1200 mg/kg.
On to `CNCCC#N`, for which the LD50 is 2260 mg/kg.
For the molecule `c1ccc2c(c1)CN1CCN=C1N2`, the LD50 was 900 mg/kg.
Consider `COC(C)C=O` (stereo not drawn), for which the LD50 is 940 mg/kg.
As to `CCC(SC(C)=NOC(=O)NC)C(N)=O` (stereo not drawn), the LD50 is 14.1 mg/kg.
As to `CC(C)(C)NCC(O)COc1cccc2c1CCC(=O)N2` (stereo not drawn), the 50% lethal dose (LD50) was 1330 mg/kg.
As to `C[C@H](CCC(=O)O)[C@H]1CC[C@H]2[C@@H]3[C@@H](O)C[C@@H]4C[C@H](O)CC[C@]4(C)[C@H]3CC[C@]12C`, the LD50 is 4600 mg/kg.
Consider `C=Cc1ccc(C)nc1`, for which the median lethal dose (LD50) was 1170 mg/kg.
Regarding `Cc1ccc(/N=N/c2c(O)c(S(=O)(=O)O)cc3ccc(S(=O)(=O)O)cc23)c(C)c1`, the LD50 is 23200 mg/kg.
`CN1CCN(CCCN2c3ccccc3Sc3ccccc32)CC1`: the LD50 was 1380 mg/kg and 500 mg/kg.
On to `O=[N+]([O-])c1cc2[nH]c(C(F)(F)F)nc2c(Cl)c1Cl`, for which the LD50 was 55 mg/kg.
For `CN(C)N=Nc1cccnc1`, the LD50 was 160 mg/kg.
For `O=S(=O)(O)c1c(Cl)c(Cl)c(Cl)c2[nH]c(C(F)(F)F)nc12`, the LD50 is 218 mg/kg.
Regarding `CC(C)(C)C(=O)CCc1ccc(Cl)cc1`, the LD50 was 3140 mg/kg.
Consider `COc1ccc2c(c1OC)C13CCN(C)C(C2)C1(O)CCC(O)C3` (stereo not drawn), for which the LD50 is 339 mg/kg.
Consider `CCOP(N)(=O)SC` (stereo not drawn), for which the LD50 was 5 mg/kg.
For `c1ccc2sc(SNC3CCCCC3)nc2c1`, the LD50 was 5300 mg/kg.
With `O=S(=O)(F)C1CCC(S(=O)(=O)F)C1` (stereo not drawn), the LD50 was 7.9 mg/kg.
Consider `COc1ccc2[nH]c(S(=O)Cc3ncc(C)c(OC)c3C)nc2c1` (stereo not drawn), for which the LD50 was 2210 mg/kg.
Consider `CC(=O)CC(=O)OC(C)C`, for which the LD50 was 16200 mg/kg.
For `CN(C)C(=O)Oc1cccc([N+](C)(C)C)c1`, the LD50 is 51 mg/kg.
Turning to `O=C(O)CCC(=O)OC1CCCCC1`, the 50% lethal dose (LD50) is 6500 mg/kg.
Regarding `Nc1ccc(F)c(F)c1`, the LD50 was 340 mg/kg.
As for `CCCOC(=O)c1ccc(C(=O)OCCC)nc1`, the median lethal dose (LD50) is 5230 mg/kg.
For `COc1ccc2c(c1)OC(C)(C)C(c1ccccc1)=C2c1ccc(OCC(O)CNC(C)C)cc1` (stereo not drawn), the 50% lethal dose (LD50) is 1000 mg/kg.
Take `CC(C)NC(=O)OC1CCN(CCCC(=O)c2ccc(F)cc2)CC1`: the median lethal dose (LD50) was 310 mg/kg.
As for `CC(C)(O)c1ccccc1`, the median lethal dose (LD50) was 1300 mg/kg.
On to `O=C(CCCN1CC=C(n2c(=O)[nH]c3ccccc32)CC1)c1ccc(F)cc1`, for which the LD50 is 750 mg/kg.
`CC1(C)CCCO1`: the LD50 was 4000 mg/kg.
`CCOC(=S)C=Cc1ccc(Cl)cc1`: the LD50 is 950 mg/kg.
Turning to `[O-][N+](=Nc1ccccc1)c1ccccc1`, the median lethal dose (LD50) is 620 mg/kg.
`CN(C)C=Nc1c(I)cc(I)c(CCC(=O)O)c1I`: the LD50 was 2500 mg/kg and 1030 mg/kg.
Take `Cc1ccc(C2=CCN(CC=Cc3ccc4c(c3)CCC(=O)N4)CC2)cc1`: the LD50 was 500 mg/kg.
In the case of `CC(CN)CCCN` (stereo not drawn), the LD50 was 1690 mg/kg.
For the molecule `CO[C@H]1C[C@H](O[C@H]2[C@H](C)[C@@H](O[C@@H]3O[C@H](C)C[C@H](N(C)C)[C@H]3O)[C@@H](C)C[C@]3(CO3)C(=O)[C@H](C)[C@@H](O)[C@@H](C)[C@@H](C)OC(=O)[C@@H]2C)O[C@@H](C)[C@@H]1O`, the LD50 was 6700 mg/kg.
In the case of `CCOC(=S)C=Cc1ccc([N+](=O)[O-])cc1`, the LD50 is 970 mg/kg.
`CC[N+](C)(C)CCO`: the LD50 was 6930 mg/kg.
For `N#CCC(N)=O`, the LD50 was 3200 mg/kg.

What is called LD50 is the dose expected to kill half of the subjects tested.
